Source: patent US4770997A, “Thermostable bilirubin oxidase and production process thereof” (Toyo Jozo Co., Ltd., priority 1985, dated 1988)

How the values were obtained:
[1] = tested on: Bacillus licheniformis B-0891 (FERM BP-952) bilirubin oxidase (Invention Sample); assay: Km value of the thermostable bilirubin oxidase of this invention; type: biochemical; conditions: at pH 8.0; substrate bilirubin
Description: A reaction mixture (1.49 ml) of the above composition was placed in a small test tube. After heating it to 37° C., 0.01 ml of a 10 mM bilirubin solution was added to initiate the reaction. They were reacted at 37° C. for 10 minutes. After the reaction, 1.5 ml of 1% CPC (N-cetylpyridinium chloride) was added to terminate the reaction and the reaction mixture was subjected to the colorimetric analysis at 453 nm to determine its absorbance [S]. On the other hand, as a blank, a reaction mixture (1.44 ml) of the same type as the above-employed reaction mixture except for the exclusion of the enzyme solution was added with 0.01 ml of the bilirubin solution. The resultant mixture was incubated at 37° C. for 10 minutes precisely. Thereafter, 1.5 ml of 1% CPC and 0.05 ml of the bilirubin oxidase solution were added successively. The thus-prepared mixture was subjected to the colorimetric analysis at 453 nm to determine its absorbance [B]. The enzymatic activity is calculated in accordance with the following equation: [formula] wherein 1 unit (U) of the enzymatic activity is defined as the amount of enzyme which oxidizes 1 μmol of bilirubin per minute under the above-described conditions.

[2] = target: T1, bilirubin oxidase originated from Myrothecium (Prior Art Sample No. 3) (Albifimbria verrucaria, UniProt Q12737); conditions: Prior Art Sample No. 3, originated from Myrothecium; substrate bilirubin; cited from earlier work
T1 sequence (Q12737 39-572): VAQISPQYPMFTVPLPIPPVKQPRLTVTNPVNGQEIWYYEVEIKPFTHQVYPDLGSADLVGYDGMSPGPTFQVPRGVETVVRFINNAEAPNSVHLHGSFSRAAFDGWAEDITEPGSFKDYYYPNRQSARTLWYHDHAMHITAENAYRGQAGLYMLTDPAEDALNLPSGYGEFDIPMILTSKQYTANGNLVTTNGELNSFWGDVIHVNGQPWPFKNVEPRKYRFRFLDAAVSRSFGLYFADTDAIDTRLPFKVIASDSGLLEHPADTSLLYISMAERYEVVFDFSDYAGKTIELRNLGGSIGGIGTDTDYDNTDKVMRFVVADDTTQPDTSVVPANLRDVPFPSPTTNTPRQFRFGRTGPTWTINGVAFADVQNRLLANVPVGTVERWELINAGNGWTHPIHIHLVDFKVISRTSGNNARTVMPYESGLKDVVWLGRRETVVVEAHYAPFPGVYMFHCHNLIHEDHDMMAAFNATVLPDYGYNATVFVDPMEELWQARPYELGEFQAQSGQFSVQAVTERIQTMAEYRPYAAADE

SMILES: C=CC1=C(C)/C(=C/c2[nH]c(Cc3[nH]c(/C=C4\NC(=O)C(C)=C4C=C)c(C)c3CCC(=O)O)c(CCC(=O)O)c2C)NC1=O [Bilirubin]
- Km [1]: 28.6 µM
- Km [2]: 190 µM
